“And” between values parts separate entries of the source, which are not always exact repeats. Equal entries are not always repeated.
Legend:
[1] = TGA; mixture of water, dicamba-DGA and water conditioning agent at field-use concentrations
Excerpt: A comparison of the increase in auxin herbicide volatility in various water conditioning agents was done by preparing mixtures of water, herbicide (dicamba diglycolamine (DGA) salt in this case), and water conditioning agent. Concentration of the solutions mimics actual agricultural field-use concentrations. In this test, done using thermogravimetric analysis (TGA), a comparison was made between a control (dicamba-DGA alone) to dicamba-DGA plus a water conditioning agent.

flax = test: Field trial, water conditioning effect with glyphosate, visual injury; assay type: in vivo; conditions: for % Control 2 Weeks Post Treatment, Mean / % Control 4 Weeks Post Treatment, Mean: mean of 3 plots; for % Control 2 Weeks Post Treatment / % Control 4 Weeks Post Treatment: single plots
Experimental: (§1) A field trial was conducted to compare the efficacy of the herbicide glyphosate (diluted to less than its label use rate with distilled water or water containing 1000 ppm (calcium+magnesium)), with or without water conditioning agents of the present disclosure. In this trial, the glyphosate-containing spray was applied to flax, amaranth, sunflower and corn. The glyphosate used in this field trial was Touchdown® HT herbicide and its spray application rate was kept constant at 9.6 fl oz/a. A non-ionic surfactant (Activator 90 surfactant) was also applied with the herbicide at a constant spray application rate of 0.5% v/v. Finally, the water conditioning agents of the present disclosure, when present, were applied at spray application rates of 0.75% v/v and 1.0% v/v. Flax, amaranth, sunflower and corn, which had been plotted at various locations throughout the field, were spray treated and visually assessed on a particular day after treatment for injury on a scale of 0 to 100%, with zero representing “no” injury and 100% representing “complete” injury or death. The water conditioning agents tested during this trial included: […]

sunflower = test: as above; assay type: in vivo; conditions: for % Control 2 Weeks Post Treatment, Mean / % Control 4 Weeks Post Treatment, Mean: mean of 3 plots; for % Control 2 Weeks Post Treatment / % Control 4 Weeks Post Treatment: single plots
Experimental: as §1

amaranth = test: as above; assay type: in vivo; conditions: for % Control 2 Weeks Post Treatment, Mean / % Control 4 Weeks Post Treatment, Mean: mean of 3 plots; for % Control 2 Weeks Post Treatment / % Control 4 Weeks Post Treatment: single plots
Experimental: as §1

corn = test: as above; assay type: in vivo; conditions: for % Control 2 Weeks Post Treatment, Mean / % Control 4 Weeks Post Treatment, Mean: mean of 3 plots; for % Control 2 Weeks Post Treatment / % Control 4 Weeks Post Treatment: single plots
Experimental: as §1

[2] = Compatibility with glyphosate herbicide solution; assay type: physicochemical; conditions: 950 g water with 1000 ppm calcium, 30 g MEA sulfate solution, 20 g ROUNDUP ULTRA MAX
Experimental: A mixture of 950 grams water containing 1000 ppm calcium, 30 grams of the MEA sulfate solution from Example 1, and 20 grams of ROUNDUP ULTRA® MAX herbicide (The Scotts Company LLC of Marysville, Ohio) was prepared.

[3] = glyphosate in distilled water + non-ionic surfactant
[4] = glyphosate in hard water + non-ionic surfactant, no water conditioner
[5] = glyphosate in hard water + non-ionic surfactant + sulfate at 0.75% v/v
[6] = glyphosate in hard water + non-ionic surfactant + sulfate at 1.0% v/v

COc1c(Cl)ccc(Cl)c1C(=O)O [Dicamba-DGA, 3,6-dichloro-2-methoxybenzoic acid]
Relative Volatility [1]: 0.01185

O=C(O)CNCP(=O)(O)O [Glyphosate, N-(phosphonomethyl) glycine, reference compound]
% Control 2 Weeks Post Treatment, Mean (flax; [3]): 53.3%
% Control 4 Weeks Post Treatment, Mean (flax; [3]): 56.7%
% Control 2 Weeks Post Treatment (flax; [3]): 50% and 60%
% Control 4 Weeks Post Treatment (flax; [3]): 55% and 60%
% Control 2 Weeks Post Treatment, Mean (flax; [4]): 33.3%
% Control 4 Weeks Post Treatment, Mean (flax; [4]): 33.3%
% Control 2 Weeks Post Treatment (flax; [4]): 30% and 35%
% Control 4 Weeks Post Treatment (flax; [4]): 30% and 35%
% Control 2 Weeks Post Treatment, Mean (sunflower; [3]): 53.3%
% Control 4 Weeks Post Treatment, Mean (sunflower; [3]): 56.7%
% Control 2 Weeks Post Treatment (sunflower; [3]): 50% and 60%
% Control 4 Weeks Post Treatment (sunflower; [3]): 55% and 60%
% Control 2 Weeks Post Treatment, Mean (sunflower; [4]): 33.3%
% Control 4 Weeks Post Treatment, Mean (sunflower; [4]): 33.3%
% Control 2 Weeks Post Treatment (sunflower; [4]): 30% and 35%
% Control 4 Weeks Post Treatment (sunflower; [4]): 30% and 35%
% Control 2 Weeks Post Treatment, Mean (amaranth; [3]): 53.3%
% Control 4 Weeks Post Treatment, Mean (amaranth; [3]): 56.7%
% Control 2 Weeks Post Treatment (amaranth; [3]): 50% and 60%
% Control 4 Weeks Post Treatment (amaranth; [3]): 55% and 60%
% Control 2 Weeks Post Treatment, Mean (amaranth; [4]): 33.3%
% Control 4 Weeks Post Treatment, Mean (amaranth; [4]): 33.3%
% Control 2 Weeks Post Treatment (amaranth; [4]): 30% and 35%
% Control 4 Weeks Post Treatment (amaranth; [4]): 30% and 35%
% Control 2 Weeks Post Treatment, Mean (corn; [3]): 53.3%
% Control 4 Weeks Post Treatment, Mean (corn; [3]): 56.7%
% Control 2 Weeks Post Treatment (corn; [3]): 50% and 60%
% Control 4 Weeks Post Treatment (corn; [3]): 55% and 60%
% Control 2 Weeks Post Treatment, Mean (corn; [4]): 33.3%
% Control 4 Weeks Post Treatment, Mean (corn; [4]): 33.3%
% Control 2 Weeks Post Treatment (corn; [4]): 30% and 35%
% Control 4 Weeks Post Treatment (corn; [4]): 30% and 35%

monoethanolamine sulfate [Sulfate 1]
% Control 2 Weeks Post Treatment, Mean (flax; [5]): 51.7%
% Control 4 Weeks Post Treatment, Mean (flax; [5]): 51.7%
% Control 2 Weeks Post Treatment (flax; [5]): 45% and 50% and 60%
% Control 4 Weeks Post Treatment (flax; [5]): 45% and 50% and 60%
% Control 2 Weeks Post Treatment, Mean (flax; [6]): 48.3%
% Control 4 Weeks Post Treatment, Mean (flax; [6]): 48.3%
% Control 2 Weeks Post Treatment (flax; [6]): 55% and 45%
% Control 4 Weeks Post Treatment (flax; [6]): 55% and 45%
% Control 2 Weeks Post Treatment, Mean (sunflower; [5]): 71%
% Control 4 Weeks Post Treatment, Mean (sunflower; [5]): 71%
% Control 2 Weeks Post Treatment (sunflower; [5]): 70% and 75% and 68%
% Control 4 Weeks Post Treatment (sunflower; [5]): 70% and 75% and 68%
% Control 2 Weeks Post Treatment, Mean (sunflower; [6]): 85%
% Control 4 Weeks Post Treatment, Mean (sunflower; [6]): 80%
% Control 2 Weeks Post Treatment (sunflower; [6]): 85%
% Control 4 Weeks Post Treatment (sunflower; [6]): 80%
% Control 2 Weeks Post Treatment, Mean (amaranth; [5]): 72.7%
% Control 4 Weeks Post Treatment, Mean (amaranth; [5]): 72.7%
% Control 2 Weeks Post Treatment (amaranth; [5]): 75% and 68%
% Control 4 Weeks Post Treatment (amaranth; [5]): 75% and 68%
% Control 2 Weeks Post Treatment, Mean (amaranth; [6]): 81.7%
% Control 4 Weeks Post Treatment, Mean (amaranth; [6]): 71.7%
% Control 2 Weeks Post Treatment (amaranth; [6]): 80% and 85%
% Control 4 Weeks Post Treatment (amaranth; [6]): 70% and 75%
% Control 2 Weeks Post Treatment, Mean (corn; [5]): 68.7%
% Control 4 Weeks Post Treatment, Mean (corn; [5]): 79.3%
% Control 2 Weeks Post Treatment (corn; [5]): 68% and 70%
% Control 4 Weeks Post Treatment (corn; [5]): 80% and 78%
% Control 2 Weeks Post Treatment, Mean (corn; [6]): 77.7%
% Control 4 Weeks Post Treatment, Mean (corn; [6]): 86%
% Control 2 Weeks Post Treatment (corn; [6]): 80% and 75% and 78%
% Control 4 Weeks Post Treatment (corn; [6]): 88% and 85%
physical and chemical compatibility with glyphosate-containing formulation [2]: clear, homogenous solution
